EP0067666A1, “Salts of antimicrobial naphthyridine and quinoline compounds and their production” (priority 1981, dated 1982)
In brackets after ≈: the same amount, converted by molar mass. Marks after values point to notes of the source that are not given here.

Experiments:
Format in all cases: physicochemical
[1] = Solubility of lyophilized and crystalline solids; details: for pH of Solution Lyo. / Conc. of CPD A mg/ml Lyo.: lyophilized solid
[2] = 10x dilution of soluble forms with standard IV solutions (pH, precipitate); details: for Solution 1 ppt 24 hr / Solution 3 ppt 24 hr / Solution 2 ppt 24 hr / Solution 4 ppt 24 hr: precipitate at 24 hr; for Concen. of Cpd A: undiluted solution used for the 10x dilutions; for Solution 1 ppt 4 hr / Solution 3 ppt 4 hr / Solution 2 ppt 4 hr / Solution 4 ppt 4 hr: precipitate at 4 hr
Procedure: (§1) The amount of Compound A or Compound B calculated for selected concentrations was weighed into volumetric flasks. Equimolar quantities of combining acid, amino acid, or base were added either as solutions or in dry form. Deionized water was added to bring the volume to that desired for the preselected concentrations.. All flasks were sonicated for 15 minutes, allowed to stand at room temperature for 30 minutes, then filtered through a fine frit sintered glass funnel. After the pH of the filtrate was taken, suitable dilutions were made into 0.1N HCl for ultraviolet spectrophotometric assay of concentration. Ten fold dilutions of the original filtrates were made into standard I.V. solutions.

[3] = Solubility screening procedure (concentration and pH of filtrate); details: for Conc. of CPD A: compound A + equimolar acid; for Conc. of CPD A / Conc. of CPD B: amino acid or base in deionized water, room temperature, filtrate, UV assay; for pH of Solution: pH of the filtrate; for Conc. of CPD B: compound B + equimolar acid
Procedure: as §1

[4] = Cpd A salt solution diluted 10x with 0.9% NaCl
[5] = Cpd A salt solution diluted 10x with 5% Dextrose
[6] = Cpd A salt solution diluted 10x with 5% Dextrose + 0.9% NaCl
[7] = Cpd A salt solution diluted 10x with Lactated Ringer's Solution
[8] = concentrated Cpd B solution (154-221 mg/ml) diluted 10x with 5% Dextrose
[9] = concentrated Cpd B solution (154-221 mg/ml) diluted 10x with 5% Dextrose + 0.9% NaCl
[10] = concentrated Cpd B solution (154-221 mg/ml) diluted 10x with Lactated Ringer's Solution
[11] = concentrated Cpd B solution (155-221 mg/ml) diluted 10x with 0.9% NaCl
[12] = concentrated Cpd B solution diluted 10x with 5% Dextrose + 0.9% NaCl
[13] = concentrated Cpd B solution diluted 10x with 5% Dextrose
[14] = concentrated Cpd B solution diluted 10x with Lactated Ringer's Solution
[15] = undiluted concentrated Cpd B solution used for the Solution 1 dilution
[16] = undiluted concentrated solution (at least 155 mg/ml) used for the Solution 1 dilution (for most salts for all four solutions)
[17] = low-concentration Cpd B solution (26.2-52 mg/ml) diluted 10x with 0.9% NaCl
[18] = separate undiluted concentrated Cpd B solution used for Solutions 2-4 only
[19] = separate undiluted concentrated solution used for Solutions 2-4 only
[20] = undiluted low-concentration Cpd B solution (26.2-52 mg/ml)
[21] = undiluted low-concentration solution (26.2-52 mg/ml), diluted with Solution 1 only

Structure (SMILES) | pH of Solution Cryst. ([1]; CPD A salt, crystalline solid) | pH of Solution Lyo. ([1]; CPD A salt) | Conc. of CPD A mg/ml Lyo. ([1]; not necessarily maximum value) | Solution 1 pH dil [2, 4] | Solution 1 ppt 24 hr [2, 4] | Solution 2 pH dil [2, 5] | Solution 3 pH dil [2, 6] | Conc. of CPD B [3] | pH of Solution ([3]; CPD B solutions) | Solution 2 pH dil [2, 8] | Solution 3 pH dil [2, 9] | Solution 4 pH dil [2, 10] | Solution 1 pH dil [2, 11] | Solution 1 ppt 4 hr [2, 11] | Solution 1 ppt 24 hr [2, 11] | Solution 3 ppt 24 hr [2, 12] | Solution 2 ppt 24 hr [2, 13] | Solution 4 ppt 24 hr [2, 14] | pH of Solut. [2, 15] | Concen. of Cpd B [2, 16] | further results
CCn1cc(C(=O)O)c(=O)c2cc(F)c(N3CCNCC3)cc21 [A D-Galacturonic] | 4.9 | 4.0 | 256 mg/mL | 5.36 | no | 5.18 | 5.20 |  |  |  |  |  |  |  |  |  |  |  |  |  | solubility ([1]; crystalline solid, not necessarily maximum value, read-out: Conc. of CPD A mg/ml Cryst.): 183 mg/mL (≈ 573 mM); Solution 3 ppt 24 hr [2, 6]: no; Solution 2 ppt 24 hr [2, 5]: slight; Solution 4 pH dil [2, 7]: 5.36; Solution 4 ppt 24 hr [2, 7]: no; pH of Solut. ([2]; undiluted Cpd A solution): 5.44; Concen. of Cpd A [2]: 166000 µg/mL
CCn1cc(C(=O)O)c(=O)c2cc(F)c(N3CCNCC3)cc21 [A D-Gluconic] | 4.83 | 5.1 | 255 mg/mL | 4.4 | no | 4.3 | 4.4 |  |  |  |  |  |  |  |  |  |  |  |  |  | Solution 3 ppt 24 hr [2, 6]: no; Solution 2 ppt 24 hr [2, 5]: no; Solution 4 pH dil [2, 7]: 4.7; Solution 4 ppt 24 hr [2, 7]: no; pH of Solut. ([2]; undiluted Cpd A solution): 4.30; Concen. of Cpd A [2]: 182000 µg/mL
CCn1cc(C(=O)O)c(=O)c2cc(F)c(N3CCNCC3)cc21 [A L-Aspartic] | 4.8 | 4.5 | 256 mg/mL | 5.05 | no | 4.83 | 4.84 |  |  |  |  |  |  |  |  |  |  |  |  |  | Conc. of CPD A [3]: 174000 µg/mL; pH of Solution ([3]; CPD A solutions): 4.88; Solution 3 ppt 24 hr [2, 6]: no; Solution 2 ppt 24 hr [2, 5]: slight; Solution 4 pH dil [2, 7]: 5.02; Solution 4 ppt 24 hr [2, 7]: no; pH of Solut. ([2]; undiluted Cpd A solution): 4.88; Concen. of Cpd A [2]: 174000 µg/mL
CCn1cc(C(=O)O)c(=O)c2cc(F)c(N3CCNCC3)cc21 [A L-Glutamic] | 5.5 | 5.2 | 254 mg/mL | 5.18 | no | 5.05 | 5.05 |  |  |  |  |  |  |  |  |  |  |  |  |  | Conc. of CPD A [3]: 174000 µg/mL; pH of Solution ([3]; CPD A solutions): 5.08; Solution 3 ppt 24 hr [2, 6]: no; Solution 2 ppt 24 hr [2, 5]: no; Solution 4 pH dil [2, 7]: 5.15; Solution 4 ppt 24 hr [2, 7]: no; pH of Solut. ([2]; undiluted Cpd A solution): 5.08; Concen. of Cpd A [2]: 174000 µg/mL
CCn1cc(C(=O)O)c(=O)c2cc(F)c(N3CCNCC3)cc21 [A Lactic] | 5.15 | 4.6 | 256 mg/mL | 4.3 | no | 4.8 | 4.2 |  |  |  |  |  |  |  |  |  |  |  |  |  | Conc. of CPD A [3]: 198000 µg/mL; pH of Solution ([3]; CPD A solutions): 4.05; Solution 3 ppt 24 hr [2, 6]: no; Solution 2 ppt 24 hr [2, 5]: no; Solution 4 pH dil [2, 7]: 4.5; Solution 4 ppt 24 hr [2, 7]: no; pH of Solut. ([2]; undiluted Cpd A solution): 4.17; Concen. of Cpd A [2]: 193000 µg/mL
CCn1cc(C(=O)O)c(=O)c2cc(F)c(N3CCNCC3)nc21 [B Acetic] |  |  |  |  |  |  |  | 195000 µg/mL | 4.97^c | 5.6 | 5.4 | 5.3 | 5.2 | yes | yes | yes | slight | yes | 4.97 | 195000 µg/mL | Solution 3 ppt 4 hr [2, 12]: yes; Solution 2 ppt 4 hr [2, 13]: slight; Solution 4 ppt 4 hr [2, 14]: slight
CCn1cc(C(=O)O)c(=O)c2cc(F)c(N3CCNCC3)nc21 [B D-Gluconic] |  |  |  |  |  |  |  |  |  | 4.5 | 4.8 | 4.6 | 4.6 | no | yes | yes | no | no | 4.6 | 168000 µg/mL | pH of Solution Cryst. ([1]; CPD B salt, crystalline solid): 4.78; pH of Solution Lyo. ([1]; CPD B salt): 4.8; Solution 3 ppt 4 hr [2, 12]: no
CCn1cc(C(=O)O)c(=O)c2cc(F)c(N3CCNCC3)nc21 [B Hydrochloric] |  |  |  |  |  |  |  | 7000 µg/mL | 1.83^c |  |  |  |  |  |  |  |  |  |  |  | pH of Solution Cryst. ([1]; CPD B salt, crystalline solid): 3
CCn1cc(C(=O)O)c(=O)c2cc(F)c(N3CCNCC3)nc21 [B Isethionic] |  |  |  |  |  |  |  | 220000 µg/mL | 1.01 | 2.35 | 2.14 | 3.95 | 2.08 | no | yes | yes | no | slight | 1.01 | 220000 µg/mL | pH of Solution Cryst. ([1]; CPD B salt, crystalline solid): 2.84; pH of Solution Lyo. ([1]; CPD B salt): 1.4; Solution 1 pH dil [2, 17]: 3.05; Solution 1 ppt 24 hr [2, 17]: no; pH of Solut. [2, 18]: 1.40; Concen. of Cpd B [2, 19]: 196000 µg/mL; pH of Solut. [2, 20]: 2.16; Concen. of Cpd B [2, 21]: 48800 µg/mL
CCn1cc(C(=O)O)c(=O)c2cc(F)c(N3CCNCC3)nc21 [B L-Aspartic] |  |  |  |  |  |  |  | 165000 µg/mL | 4.64 | 4.83 | 4.71 | 4.94 | 4.82 | no | yes | yes | no | no | 4.64 | 165000 µg/mL | pH of Solution Cryst. ([1]; CPD B salt, crystalline solid): 4.80; pH of Solution Lyo. ([1]; CPD B salt): 4.65; Solution 1 pH dil [2, 17]: 5.54; Solution 1 ppt 24 hr [2, 17]: no; pH of Solut. [2, 18]: 4.60; Concen. of Cpd B [2, 19]: 190000 µg/mL; pH of Solut. [2, 20]: 4.48; Concen. of Cpd B [2, 21]: 49800 µg/mL
CCn1cc(C(=O)O)c(=O)c2cc(F)c(N3CCNCC3)nc21 [B L-Cysteic] |  |  |  |  |  |  |  | 221000 µg/mL | 2.78 | 2.9 | 2.8 | 3.9 | 2.8 | yes | yes | yes | hazy | yes | 2.78 | 221000 µg/mL | Solution 3 ppt 4 hr [2, 12]: yes; Solution 2 ppt 4 hr [2, 13]: hazy; Solution 4 ppt 4 hr [2, 14]: yes; Solution 1 pH dil [2, 17]: 3.29; Solution 1 ppt 24 hr [2, 17]: no; pH of Solut. [2, 20]: 2.96; Concen. of Cpd B [2, 21]: 52000 µg/mL
CCn1cc(C(=O)O)c(=O)c2cc(F)c(N3CCNCC3)nc21 [B Lactic] |  |  |  |  |  |  |  | 217000 µg/mL | 4.24^b | 4.2 | 4.1 | 4.3 | 4.1 | yes | yes | yes | hazy | yes | 4.04 | 221000 µg/mL | Solution 3 ppt 4 hr [2, 12]: yes; Solution 2 ppt 4 hr [2, 13]: hazy; Solution 4 ppt 4 hr [2, 14]: yes
